US7739055B2, “Methods and systems for generating and evaluating peptides” (priority 2005, dated 2010)
≈ marks a conversion by molar mass, not a printed value. Read-outs that look alike come from different tables or passages of the source. Where a SMILES comes first, the peptide text is derived from it.

How the values were obtained:
[1] = system: Escherichia coli
[2] = system: B. cereus
[3] = first concentration that prohibits growth by OD at 24 hours, Table 1

Compound | MIC E. coli ([1]; 24 h) | MIC B. cereus [2, 3] | MIC E. coli [1, 3] | MIC B. cereus [2] | MIC B. cereus ([2]; 24 h)
CC(C)C[C@H](NC(=O)[C@H](CCCCN)NC(=O)[C@H](Cc1ccccc1)NC(=O)[C@@H](NC(=O)[C@H](C)NC(=O)[C@@H]1CCCN1C(=O)[C@@H](N)CC(C)C)C(C)C)C(=O)N[C@@H](C)C(=O)N[C@@H](CO)C(=O)N[C@@H](CCCCN)C(=O)N[C@H](C(=O)N[C@@H](Cc1ccccc1)C(=O)N1CCC[C@H]1C(=O)N[C@@H](C)C(=O)N[C@H](C(=O)N[C@@H](Cc1ccc(O)cc1)C(=O)N[C@@H](CS)C(=O)N[C@@H](CCCCN)C(=O)N[C@@H](C)C(=O)N[C@@H](CO)C(=O)O)C(C)C)C(C)C [Peptide 62] (H-LPAVFKLASKVFPAVYCKAS-OH; N-terminus and C-terminus assumed) | 128 µg/mL (≈ 59.8 µM) | + (MIC greater than 256 ug/mL) |  |  | 
CC[C@H](C)[C@H](NC(=O)[C@H](Cc1ccccc1)NC(=O)CN)C(=O)NCC(=O)N[C@@H](CCCCN)C(=O)N[C@@H](CC(C)C)C(=O)N[C@@H](C)C(=O)N[C@@H](CO)C(=O)N[C@@H](CCCCN)C(=O)N[C@H](C(=O)N[C@H](C(=O)N1CCC[C@H]1C(=O)N[C@@H](CO)C(=O)N[C@H](C(=O)N[C@@H](Cc1ccc(O)cc1)C(=O)N[C@@H](CS)C(=O)N[C@@H](CCCCN)C(=O)N[C@H](C(=O)N[C@H](C(=O)NCC(=O)O)[C@@H](C)O)C(C)C)C(C)C)C(C)C)C(C)C [Peptide 24] (H-GFIGKLASKVVPSVYCKVTG-OH; N-terminus and C-terminus assumed) | 128 µg/mL (≈ 62.3 µM) | + (MIC greater than 256 ug/mL) |  |  | 
VVGRVASKVVPSLIGLFTTK [Peptide 65] |  | + (MIC greater than 256 ug/mL) | + (MIC greater than 256 ug/mL) |  | 
VKDLAKFIAKTVAKQGGCYL [Peptide 33] |  | ++ (MIC greater than 128 ug/mL, not sufficiently soluble to test as 256 ug/mL) | ++ (MIC greater than 128 ug/mL, not sufficiently soluble to test as 256 ug/mL) |  | 
SALGRLASKVVPAVIGKVTT [Peptide 56] |  | + (MIC greater than 256 ug/mL) | + (MIC greater than 256 ug/mL) |  | 
ALFSLASKVVPSVFSMVTKK [Peptide 1] |  | + (MIC greater than 256 ug/mL) | + (MIC greater than 256 ug/mL) |  | 
CC[C@H](C)[C@H](NC(=O)CNC(=O)[C@H](CCC(=O)O)NC(=O)[C@H](CO)NC(=O)[C@@H](NC(=O)[C@H](CCCNC(=N)N)NC(=O)[C@H](CCCCN)NC(=O)[C@H](CCCCN)NC(=O)[C@H](C)NC(=O)[C@H](CO)NC(=O)[C@H](CC(N)=O)NC(=O)[C@H](CCC(=O)O)NC(=O)[C@H](CC(C)C)NC(=O)[C@H](CCCCN)NC(=O)[C@H](CCCCN)NC(=O)[C@H](C)NC(=O)[C@@H](NC(=O)[C@H](CCCCN)NC(=O)[C@H](CO)NC(=O)[C@H](CC(C)C)NC(=O)[C@H](Cc1c[nH]c2ccccc12)NC(=O)[C@@H](N)CO)[C@@H](C)O)[C@@H](C)CC)C(=O)N[C@@H](C)C(=O)N[C@H](C(=O)N[C@@H](C)C(=O)N[C@H](C(=O)N[C@@H](CCC(N)=O)C(=O)NCC(=O)NCC(=O)N1CCC[C@H]1C(=O)N[C@@H](CCCNC(=N)N)C(=O)O)[C@@H](C)CC)[C@@H](C)CC [Cecropin P1] (H-SWLSKTAKKLENSAKKRISEGIAIAIQGGPR-OH; N-terminus and C-terminus assumed) |  |  | 2 µg/mL (≈ 0.599 µM) | + (key: +: MIC greater than 256 ug/mL; ++: MIC greater than 128 ug/mL, not sufficiently soluble to test as 256 ug/mL) | 
CC[C@H](C)[C@H](NC(=O)[C@H](CCCCN)NC(=O)[C@H](Cc1ccccc1)NC(=O)[C@@H](NC(=O)[C@H](C)NC(=O)[C@@H]1CCCN1)C(C)C)C(=O)N[C@@H](C)C(=O)N[C@@H](CO)C(=O)N[C@@H](CCCCN)C(=O)N[C@H](C(=O)N[C@H](C(=O)N1CCC[C@H]1C(=O)N[C@@H](CO)C(=O)N[C@H](C(=O)N[C@@H](Cc1ccc(O)cc1)C(=O)N[C@@H](CS)C(=O)N[C@@H](CCCCN)C(=O)N[C@H](C(=O)N[C@@H](CO)C(=O)N[C@@H](CCCNC(=N)N)C(=O)O)C(C)C)C(C)C)C(C)C)C(C)C [Peptide 29] (H-PAVFKIASKVVPSVYCKVSR-OH; N-terminus and C-terminus assumed) | 128 µg/mL (≈ 58.8 µM) | + (MIC greater than 256 ug/mL) |  |  | 
LGVVGSLASKVVPAVISKVK [Peptide 57] |  | + (MIC greater than 256 ug/mL) | + (MIC greater than 256 ug/mL) |  | 
CC[C@H](C)[C@H](NC(=O)CNC(=O)[C@@H](NC(=O)[C@H](CCCCN)NC(=O)[C@H](CCCCN)NC(=O)[C@H](Cc1ccccc1)NC(=O)[C@H](CC(C)C)NC(=O)[C@H](CCCCN)NC(=O)[C@H](Cc1c[nH]c2ccccc12)NC(=O)[C@@H](N)CCCCN)[C@@H](C)CC)C(=O)NCC(=O)N[C@@H](CCCCN)C(=O)N[C@@H](Cc1ccccc1)C(=O)N[C@@H](CC(C)C)C(=O)N[C@@H](Cc1c[nH]cn1)C(=O)N[C@@H](CO)C(=O)N[C@@H](C)C(=O)N[C@@H](CCCCN)C(=O)N[C@@H](CCCCN)C(=O)N[C@@H](Cc1ccccc1)C(=O)O [Cec A Mag 2] (H-KWKLFKKIGIGKFLHSAKKF-OH; N-terminus and C-terminus assumed) |  |  | 32 µg/mL (≈ 13.3 µM) | + (key: +: MIC greater than 256 ug/mL; ++: MIC greater than 128 ug/mL, not sufficiently soluble to test as 256 ug/mL) | 
CC[C@H](C)[C@H](NC(=O)CN)C(=O)NCC(=O)N[C@@H](CCCCN)C(=O)N[C@@H](Cc1ccccc1)C(=O)N[C@@H](CC(C)C)C(=O)N[C@@H](Cc1c[nH]cn1)C(=O)N[C@@H](CO)C(=O)N[C@@H](C)C(=O)N[C@@H](CCCCN)C(=O)N[C@@H](CCCCN)C(=O)N[C@@H](Cc1ccccc1)C(=O)NCC(=O)N[C@@H](CCCCN)C(=O)N[C@@H](C)C(=O)N[C@@H](Cc1ccccc1)C(=O)N[C@H](C(=O)NCC(=O)N[C@@H](CCC(=O)O)C(=O)N[C@H](C(=O)N[C@@H](CCSC)C(=O)N[C@@H](CC(N)=O)C(=O)N[C@@H](CO)C(=O)O)[C@@H](C)CC)C(C)C [Magainin 2] (H-GIGKFLHSAKKFGKAFVGEIMNS-OH; N-terminus and C-terminus assumed) | 64 µg/mL (≈ 25.9 µM) |  |  |  | 256 µg/mL (≈ 104 µM)
AATGTGKTAAFALPVLERLI [Peptide 38] |  | + (MIC greater than 256 ug/mL) | + (MIC greater than 256 ug/mL) |  | 
CC(C)C[C@H](NC(=O)CNC(=O)[C@H](Cc1ccccc1)NC(=O)[C@H](CC(C)C)NC(=O)[C@H](C)NC(=O)CN)C(=O)N[C@@H](C)C(=O)N[C@@H](CO)C(=O)N[C@@H](CCCCN)C(=O)N[C@H](C(=O)N[C@@H](Cc1ccccc1)C(=O)N1CCC[C@H]1C(=O)N[C@@H](C)C(=O)N[C@H](C(=O)N[C@@H](Cc1ccccc1)C(=O)NCC(=O)N[C@@H](C)C(=O)N[C@@H](Cc1ccccc1)C(=O)N[C@@H](CCCCN)C(=O)N[C@@H](CCCCN)C(=O)O)C(C)C)C(C)C [Peptide 30] (H-GALFGLASKVFPAVFGAFKK-OH; N-terminus and C-terminus assumed) | 256 µg/mL (≈ 125 µM) | + (MIC greater than 256 ug/mL) |  |  | 
CC[C@H](C)[C@H](NC(=O)[C@@H](NC(=O)[C@H](CS)NC(=O)[C@H](Cc1ccc(O)cc1)NC(=O)[C@@H](NC(=O)[C@H](C)NC(=O)[C@@H]1CCCN1C(=O)[C@H](Cc1ccccc1)NC(=O)[C@@H](NC(=O)[C@H](CCCCN)NC(=O)[C@H](CO)NC(=O)[C@H](C)NC(=O)[C@H](CC(C)C)NC(=O)[C@H](CCCCN)NC(=O)CNC(=O)[C@H](CC(C)C)NC(=O)[C@H](C)N)C(C)C)C(C)C)[C@@H](C)O)C(=O)N[C@@H](CO)C(=O)N[C@@H](CCCNC(=N)N)C(=O)N[C@@H](CCCCN)C(=O)O [Peptide 23] (H-ALGKLASKVFPAVYCTISRK-OH; N-terminus and C-terminus assumed) | 128 µg/mL (≈ 59.5 µM) | + (MIC greater than 256 ug/mL) |  |  | 
SAVGKLASKVFPAVFSMVTK [Peptide 31] |  | + (MIC greater than 256 ug/mL) | + (MIC greater than 256 ug/mL) |  | 

Further lines, with some results ahead:

MIC E. coli ([1]; 24 h) | MIC B. cereus [2, 3] | MIC E. coli [1, 3] | Compound | MIC B. cereus [2] | MIC B. cereus ([2]; 24 h)
 | + (MIC greater than 256 ug/mL) | + (MIC greater than 256 ug/mL) | ALVYAGIKKTAFLKVQKCDG [Shuffled 33] |  | 
 | + (MIC greater than 256 ug/mL) | + (MIC greater than 256 ug/mL) | KTVPVVLKASIKVSSAGFGF [Shuffled 82] |  | 
 | + (MIC greater than 256 ug/mL) | + (MIC greater than 256 ug/mL) | SVKVAKSVIPSAVFAGGKVF [Shuffled 84] |  | 
256 µg/mL (≈ 116 µM) | + (MIC greater than 256 ug/mL) |  | CC[C@H](C)[C@H](NC(=O)[C@@H](NC(=O)[C@H](CS)NC(=O)[C@H](Cc1ccc(O)cc1)NC(=O)[C@@H](NC(=O)[C@H](CO)NC(=O)[C@@H]1CCCN1C(=O)[C@@H](NC(=O)[C@@H](NC(=O)[C@H](CCCCN)NC(=O)[C@H](CO)NC(=O)[C@H](C)NC(=O)[C@H](CC(C)C)NC(=O)[C@H](CCCCN)NC(=O)[C@H](Cc1ccccc1)NC(=O)[C@@H](NC(=O)[C@@H](N)C(C)C)C(C)C)C(C)C)C(C)C)C(C)C)[C@@H](C)O)C(=O)N[C@H](C(=O)N[C@@H](CCCCN)C(=O)N[C@@H](CCCCN)C(=O)O)[C@@H](C)O [Peptide 88] (H-VVFKLASKVVPSVYCTITKK-OH; N-terminus and C-terminus assumed) |  | 
 | + (MIC greater than 256 ug/mL) | + (MIC greater than 256 ug/mL) | VVAKKFFVLVKGLAPVLSPS [Shuffled 42] |  | 
 | + (MIC greater than 256 ug/mL) | + (MIC greater than 256 ug/mL) | HTGRSGPATGHSGHSSTHGS [Peptide 86] |  | 
 | + (MIC greater than 256 ug/mL) | + (MIC greater than 256 ug/mL) | GAVFGVASKVVPSVFSAIKK [Peptide 84] |  | 
 | + (MIC greater than 256 ug/mL) | + (MIC greater than 256 ug/mL) | VKTKCSVPAVVYILVKTFKS [Shuffled 88] |  | 
 | + (MIC greater than 256 ug/mL) | + (MIC greater than 256 ug/mL) | SRVPLKSPVKIVGSKVMIFA [Shuffled 7] |  | 
 | + (MIC greater than 256 ug/mL) | + (MIC greater than 256 ug/mL) | FVGGVASKVVPSVYCKVSKK [Peptide 85] |  | 
